The record followed here is patent publication US20080248511A1, “METHODS TO QUENCH LIGHT FROM OPTICAL REACTIONS” (priority 2007, published 2008).

Assay type in all cases: biochemical
Experiment [1] has as its target T1, firefly luciferase (Photinus pyralis, UniProt P08659). Briefly: Quaternary ammonium/phosphonium detergent screen, firefly luciferase (Example 5). The settings on record: final conc. 0.03% detergent, Tergitol NP-9 present; for remaining activity at 0.03 %: read-out: Retained Firefly Luciferase Luminescence (%).
For experiment [2], the target named is T1, firefly luciferase. The description is as above. The settings on record: Tergitol NP-9 present. The protocol: (§1) Each detergent was added at 0.2% to a reagent solution containing 50 mM Tricine pH 8.3, 3.5 mM MgSO4, 1 mM CDTA, 30 mM thiourea and 0.5% Tergitol NP-9. This solution or one not containing a detergent inhibitor was used to resuspend the Bright-Glo™ luciferin substrate (Promega).
(§2) The luciferase reactions were initiated by adding 100 μl of the firefly luciferase or Renilla luciferase enzyme solutions to 100 μl of reagent solution. The reactions were performed as described above. […] The detergent concentrations listed refer to the final concentration in the reaction.

For experiment [3], the target named is T2, Renilla luciferase (Renilla reniformis, UniProt P27652).
T2 sequence (P27652 1-311): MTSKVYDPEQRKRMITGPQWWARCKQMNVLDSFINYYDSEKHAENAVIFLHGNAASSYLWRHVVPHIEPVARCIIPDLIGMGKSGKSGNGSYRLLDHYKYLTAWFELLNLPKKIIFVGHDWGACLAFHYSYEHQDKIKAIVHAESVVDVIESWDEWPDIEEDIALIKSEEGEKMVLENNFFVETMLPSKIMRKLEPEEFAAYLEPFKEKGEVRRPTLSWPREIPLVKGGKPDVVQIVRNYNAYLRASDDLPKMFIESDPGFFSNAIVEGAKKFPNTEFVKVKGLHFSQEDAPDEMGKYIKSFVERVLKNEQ
Briefly: Quaternary ammonium/phosphonium detergent screen, Renilla luciferase (Example 5). The settings on record: final conc. 0.03% detergent; for Retained Renilla Luciferase Luminescence (%) / remaining activity at 0.03 %: Tergitol NP-9 present; for remaining activity at 0.03 %: read-out: Retained Renilla Luciferase Luminescence (%).

In experiment [4] the target is T2, Renilla luciferase. Described as above. The settings on record: for Retained Renilla Luciferase Luminescence (%) / remaining activity at 0.1 %: Tergitol NP-9 present. The protocol:
as §1, §2

For experiment [5], the target named is T1, firefly luciferase. Briefly: Detergent titration with Tergitol NP-9, digitonin or no lysing agent, firefly luciferase (Example 4). The settings on record: read-out: Relative Firefly Luc Intensity; for remaining activity at 0.0005 %: 0.0005% detergent; for remaining activity at 0.005 %: 0.0050% detergent; for remaining activity at 0.05 %: 0.0500% detergent. The protocol:
For measurement of firefly luciferase-mediated luminescence, a solution containing 110 mM HEPES pH 7.5, 8 mM MgSO4, 0.05% gelatin, 7.35 ng/ml firefly luciferase (QuantiLum® Luciferase; Promega) and the content of the Steady-Glo Luciferase Substrate (Promega) at the equivalent of 1×, As in the Renilla luciferase reactions, reactions contained either no lysing agent, 0.5% Tergitol NP-9 or 20 μg/ml digitonin. The same detergents were titrated as described above and firefly luciferase-mediated luminescence was measured.

Experiment [6] deals with T2, Renilla luciferase. In words: biochemical. The settings on record: 0.5% detergent in Renilla Luciferase Assay Reagent; read-out: Retained Renilla Luciferase Luminescence (%). The protocol: The retained luminescence for each luciferase was calculated by dividing the luminescence in the presence of the detergent by the luminescence in the absence of the test detergent. The selectivity value for each of the test detergents was determined by dividing the retained firefly luciferase luminescence by the retained Renilla luciferase luminescence.
A set of detergents (Table 2; Sigma-Aldrich) was added at 0.5% (from a 5% or 10% stock solution) to either Luciferase Assay Reagent (Promega) or Renilla Luciferase Assay Reagent (Promega) and allowed to equilibrate at room temperature.
The firefly luciferase and Renilla luciferase enzymes were diluted as follows. Firefly luciferase was diluted to 14 ng/ml in Phosphate Buffered Saline (PBS) containing 0.1% of the protein carrier Prionex® (Pentapharm). Renilla luciferase was diluted to 10 ng/ml in 1× Renilla Luciferase Lysis Buffer (Promega) containing 0.1% Prionex®. The Renilla Luciferase Lysis Buffer […] detergent micelles when using the Renilla Luciferase Assay Reagent. In the absence of other detergents, this prevents sequestering of coelenterazine which inhibits Renilla luciferase-mediated luminescence.
The luciferase reactions were initiated by adding 40 μl of either the firefly or Renilla luciferase enzyme solution to 200 μl of the appropriate reagent solution (firefly luciferase enzyme solution+firefly luciferase reagent solution or Renilla luciferase enzyme solution+Renilla luciferase reagent solution, respectively). The reactions were performed in an opaque white, 96-well plate and luminescence was measured for 0.5 seconds per well using a Turner BioSystems Veritas™ Microplate luminometer. The retained firefly luciferase and Renilla luciferase luminescence, as well as the selectivity values for each detergent, were calculated (Table 2).

Experiment [7] deals with T2, Renilla luciferase. Briefly: Detergent titration with Tergitol NP-9, digitonin or no lysing agent, Renilla luciferase (Example 4). The settings on record: for remaining activity at 0.0005 % / remaining activity at 0.005 % / remaining activity at 0.05 %: read-out: Relative Renilla Luc Intensity. The protocol:
Renilla luciferase-mediated luminescence was measured from samples containing 9.6 mM phosphate buffer pH 6.8, 2.7 mM KCl, 137 mM NaCl (in PBS), 0.1% gelatin, 75 nM coelentrazine (Promega) and 10.2 ng/ml Renilla luciferase. Reactions contained either no lysing agent, 0.5% Tergitol NP-9 or 20 μg/ml digitonin. The detergents to be tested were titrated to 0.05%, 0.005% or 0.0005% in the reactions prior to the addition of the Renilla luciferase. Renilla luciferase-mediated luminescence was measured as described herein.

Setting [8] is: final conc. 0.10% detergent, read-out: Retained Firefly Luciferase Luminescence (%).
Setting [9] is: final conc. 0.10% detergent, read-out: Retained Renilla Luciferase Luminescence (%).

Where two headings read alike, the source gives them in different places.

T1 sequence (P08659 whole entry): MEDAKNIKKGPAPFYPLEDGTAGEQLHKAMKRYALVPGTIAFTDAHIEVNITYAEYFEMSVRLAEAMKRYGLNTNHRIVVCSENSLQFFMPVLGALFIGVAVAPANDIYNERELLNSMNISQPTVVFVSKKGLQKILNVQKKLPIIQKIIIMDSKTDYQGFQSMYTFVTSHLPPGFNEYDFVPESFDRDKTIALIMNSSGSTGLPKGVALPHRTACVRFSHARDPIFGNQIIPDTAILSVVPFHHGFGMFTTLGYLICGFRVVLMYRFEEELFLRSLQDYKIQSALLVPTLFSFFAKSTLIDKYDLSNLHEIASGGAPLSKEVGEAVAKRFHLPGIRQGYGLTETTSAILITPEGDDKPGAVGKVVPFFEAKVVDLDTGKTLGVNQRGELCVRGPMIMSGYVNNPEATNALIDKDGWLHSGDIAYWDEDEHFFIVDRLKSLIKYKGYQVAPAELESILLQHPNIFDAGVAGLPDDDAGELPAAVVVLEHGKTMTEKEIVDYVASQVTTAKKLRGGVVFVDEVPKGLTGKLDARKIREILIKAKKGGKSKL

Turning to `CC1(C)C=Cc2ccccc2[N+]1(C)C.[I-]` [1,1,2,2-Tetramethyl-1,2-dihydor-quinolynium iodide], the “Retained Firefly Luciferase Luminescence (%)” value stood at 87% on firefly luciferase [1] and 74% at firefly luciferase [2] (final conc. 0.10% detergent). Also, the “Selectivity Value” is listed as 1.0 on Renilla luciferase [3] and 1.2 on Renilla luciferase [4] (final conc. 0.10% detergent). The “Retained Renilla Luciferase Luminescence (%)” value on Renilla luciferase [3] is listed as 88%; on Renilla luciferase [4] (final conc. 0.10% detergent), 89%.

Consider `C[N+]1(C)CCCc2cccc(O)c21.[I-]` [1,1-Dimethyl-8-hydroxy-1,2,3,4-tetrahydroquinolium iodide], for which the “Retained Firefly Luciferase Luminescence (%)” value on firefly luciferase [1] is given as 81%; on firefly luciferase [2] (final conc. 0.10% detergent) it was 68%. Moreover, the “Selectivity Value” came to 0.9 on Renilla luciferase [3] and 0.8 at Renilla luciferase [4] (final conc. 0.10% detergent). Moreover, the “Retained Renilla Luciferase Luminescence (%)” value at Renilla luciferase [3] is recorded as 88%; at Renilla luciferase [4] (final conc. 0.10% detergent) it was 82%.

Consider `CCCCCCCCCCC(C(=O)c1ccc(OC)cc1)[N+](C)(C)C.[Br-]` (stereo not shown) [(1-(4-methoxybenzoyl)-undecyl)-trimethylammonium bromide], for which the remaining activity at 0.03 % at firefly luciferase [1] amounted to 106%; on Renilla luciferase [3], 20%. The remaining activity at 0.1 % at firefly luciferase [2] (setting [8]) was found to be 104%; on Renilla luciferase [4] (setting [9]), 2%. Moreover, the “Selectivity Value” on Renilla luciferase [3] was 5.3; at Renilla luciferase [4] (final conc. 0.10% detergent), 52.

As for `C[P+](CCCC(=O)O)(c1ccccc1)c1ccccc1.[Cl-]` [(3-Carboxyl-propyl)-methyl-diphenyl-phosphonium chloride], the remaining activity at 0.03 % was 98% on firefly luciferase [1] and 99% on Renilla luciferase [3]. Besides, the remaining activity at 0.1 % on firefly luciferase [2] (read-out: Retained Firefly Luciferase Luminescence (%), final conc. 0.10% detergent) is 102%; on Renilla luciferase [4] (read-out: Retained Renilla Luciferase Luminescence (%), final conc. 0.10% detergent), 89%. Besides, the figures for the “Selectivity Value” at Renilla luciferase [3] and on Renilla luciferase [4] (final conc. 0.10% detergent) were 1.0 and 0.9, respectively.

As to `CCCC[P+](CCCC)(CCCC)Cc1ccc(C)cc1.[Cl-]` [(4-Methylbenzyl)tributylphosphonium chloride], the remaining activity at 0.03 % came out at 99% on firefly luciferase [1] and 65% at Renilla luciferase [3]. Besides, the remaining activity at 0.1 % stood at 106% on firefly luciferase [2] (setting [8]) and 32% on Renilla luciferase [4] (setting [9]). Further, the “Selectivity Value” turned out to be 1.5 on Renilla luciferase [3] and 3.3 on Renilla luciferase [4] (final conc. 0.10% detergent).

With `C=CCCC[P+](c1ccccc1)(c1ccccc1)c1ccccc1.[Br-]` [(4-Penten-1-yl)triphenylphosphonium bromide], the remaining activity at 0.03 % was 98% at firefly luciferase [1] and 57% on Renilla luciferase [3]. Also, the remaining activity at 0.1 % on firefly luciferase [2] (setting [8]) stood at 102%; at Renilla luciferase [4] (setting [9]), 21%. The “Selectivity Value” at Renilla luciferase [3] turned out to be 1.7; on Renilla luciferase [4] (final conc. 0.10% detergent) it was 4.9.

`CC=CC[P+](Cc1ccccc1)(c1ccccc1)c1ccccc1.[Br-]` [Benzyl-but-2-enyl-diphenyl-phosphonium bromide]: the remaining activity at 0.03 % at firefly luciferase [1] is 106%; on Renilla luciferase [3] it was 50%. Moreover, the remaining activity at 0.1 % was determined as 109% at firefly luciferase [2] (setting [8]) and 14% on Renilla luciferase [4] (setting [9]). Further, the results for the “Selectivity Value” on Renilla luciferase [3] and at Renilla luciferase [4] (final conc. 0.10% detergent) were 2.1 and 7.8, respectively.

Turning to `CC[N+](CC)(CCC(=O)Nc1c(C)cccc1C)Cc1ccccc1.O=C([O-])c1ccccc1` [Benzyldiethyl(2,6-xylycarbamoylethyl)-ammonium benzoate], the “Retained Firefly Luciferase Luminescence (%)” value at firefly luciferase [1] amounted to 110%; on firefly luciferase [2] (final conc. 0.10% detergent), 102%. In addition, the “Selectivity Value” at Renilla luciferase [3] is listed as 1.5; on Renilla luciferase [4] (final conc. 0.10% detergent), 2.2. Also, the “Retained Renilla Luciferase Luminescence (%)” value is listed as 74% on Renilla luciferase [3] and 46% on Renilla luciferase [4] (final conc. 0.10% detergent).

As to `CCCCCCCCCCCCCCCC[N+](C)(C)C.[Cl-]` [Cetyltrimethylammonium chloride], the remaining activity at 0.0005 % came out at 164% at firefly luciferase [5] (Dig); 98% on firefly luciferase [5] (Terg); 179% at firefly luciferase [5] (Water); 14% on Renilla luciferase [7] (0.0005% detergent, Dig); 95% on Renilla luciferase [7] (0.0005% detergent, Terg); 13% at Renilla luciferase [7] (0.0005% detergent, Water). The remaining activity at 0.005 % at firefly luciferase [5] (Dig) came to 65%; on firefly luciferase [5] (Terg), 94%; at firefly luciferase [5] (Water), 70%; on Renilla luciferase [7] (0.0050% detergent, Dig), 0.02%; on Renilla luciferase [7] (0.0050% detergent, Terg), 71%; on Renilla luciferase [7] (0.0050% detergent, Water), 0.02%. In addition, the remaining activity at 0.05 % on firefly luciferase [5] (Dig (20 μg/ml digitonin)) worked out at 29%; on firefly luciferase [5] (Terg (0.5% Tergitol NP-9)), 38%; at firefly luciferase [5] (Water (no lysing agent)), 31%; on Renilla luciferase [7] (0.0500% (w:v) detergent, Terg (0.5% Tergitol NP-9)) it was 6%; on Renilla luciferase [7] (0.0500% detergent, Dig (20 μg/ml digitonin)) it was 0.02%; on Renilla luciferase [7] (0.0500% detergent, Water (no lysing agent)), 0.02%. Also, at Renilla luciferase [6], the remaining activity at 0.5 % came out at 5.23%. Also, the “Selective Inhibition (Ff Luc Inh/Ren Luc Inh)” value at Renilla luciferase [7] (0.0005% detergent, Dig) amounted to 12; at Renilla luciferase [7] (0.0005% detergent, Terg), 1.0; on Renilla luciferase [7] (0.0005% detergent, Water), 13; on Renilla luciferase [7] (0.0050% detergent, Dig) it was 2829; on Renilla luciferase [7] (0.0050% detergent, Terg), 1.3; on Renilla luciferase [7] (0.0050% detergent, Water), 3848. For the same molecule, the “Selective Inhibition (Ff Luc Inh/Ren Luc Inh)” value is 1395 on Renilla luciferase [7] (0.0500% detergent, Dig); 6 at Renilla luciferase [7] (0.0500% detergent, Terg); 1611 at Renilla luciferase [7] (0.0500% detergent, Water).
